Values of other authors as cited in patent US8546322B2, “Inhibitors of intracellular urokinase plasminogen activator and methods of use thereof” (The Regents of the University of California, priority 2007, dated 2013).

What was measured:
[1] = system: rat breast cancer; conditions: in vivo; cited from earlier work
[2] = phase II; cited from earlier work

## CCOC(=O)N1CCN(C(=O)[C@H](Cc2cccc(C(=N)N)c2)NS(=O)(=O)c2c(C(C)C)cc(C(C)C)cc2C(C)C)CC1.Cl [WX-UK1]
[1]
  metastasis and primary tumour growth (in words): suppresses rat breast cancer metastasis
[2]
  toxicity in clinical trials (in words): non-toxic
